{"source": "patent US20140228218A1", "about": "“PARAFFINIC OIL AND CLASS B GIBBERELLIN BIOSYNTHESIS INHIBITOR COMPOSITIONS” (SUNCOR ENERGY INC., priority 2011, published 2014)", "origin": "cited, not measured here", "system": "the plant being treated", "settings": "in vivo"}
{"smiles": "CC(C)(C)[C@@H](O)[C@@H](Cc1ccc(Cl)cc1)n1cncn1", "note": "(relative stereo) [paclobutrazol, (±)-(R*,R*)-beta-[(4-chlorophenyl)methyl]-alpha-(1,1-dimethylethyl)-1H-1,2,4-triazole-1-ethanol]", "values": [{"measurement": "phytotoxicity to the plant being treated (in words)", "result": "can cause phytoxicity"}]}
